Where two headings read alike, the source gives them in different places.
How the values were obtained:
Experiment in all cases: biochemical
BIKE = BIKE (Homo sapiens, UniProt Q9NSY1)
CK1d = CK1d (Homo sapiens, UniProt P48730)
DRAK1 = target: T1, DRAK1 (Homo sapiens, UniProt Q9UEE5)
T1 sequence (Q9UEE5 1-414): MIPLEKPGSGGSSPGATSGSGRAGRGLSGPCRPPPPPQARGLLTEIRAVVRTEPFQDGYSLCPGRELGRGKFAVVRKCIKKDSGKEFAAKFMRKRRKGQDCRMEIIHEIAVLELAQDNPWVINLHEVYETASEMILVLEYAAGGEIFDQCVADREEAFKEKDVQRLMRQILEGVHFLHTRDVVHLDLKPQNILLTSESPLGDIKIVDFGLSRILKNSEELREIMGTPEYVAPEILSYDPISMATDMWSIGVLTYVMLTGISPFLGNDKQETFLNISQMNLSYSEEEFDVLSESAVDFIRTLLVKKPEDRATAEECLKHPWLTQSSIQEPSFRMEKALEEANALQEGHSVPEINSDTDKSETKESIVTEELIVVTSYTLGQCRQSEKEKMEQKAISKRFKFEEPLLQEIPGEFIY

Erk7 = target: T2, Erk7 (Homo sapiens, UniProt Q8TD08)
T2 sequence (Q8TD08 1-544): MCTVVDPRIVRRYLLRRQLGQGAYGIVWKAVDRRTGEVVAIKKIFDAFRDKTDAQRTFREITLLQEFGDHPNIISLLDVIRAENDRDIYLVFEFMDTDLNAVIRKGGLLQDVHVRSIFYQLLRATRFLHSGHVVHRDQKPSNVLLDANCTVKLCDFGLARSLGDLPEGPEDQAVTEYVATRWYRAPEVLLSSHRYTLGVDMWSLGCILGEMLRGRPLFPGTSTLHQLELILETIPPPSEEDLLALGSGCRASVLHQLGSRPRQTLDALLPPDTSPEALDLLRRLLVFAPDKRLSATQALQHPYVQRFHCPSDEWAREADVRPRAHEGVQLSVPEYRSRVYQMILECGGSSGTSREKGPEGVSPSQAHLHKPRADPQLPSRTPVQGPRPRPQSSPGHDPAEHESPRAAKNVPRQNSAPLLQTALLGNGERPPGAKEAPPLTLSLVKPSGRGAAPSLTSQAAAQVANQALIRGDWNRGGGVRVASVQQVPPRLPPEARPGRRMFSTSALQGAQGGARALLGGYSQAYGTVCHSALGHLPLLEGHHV

JNK3 = JNK3 (Homo sapiens, UniProt P53779)
MAP2K4 = target: T3, MAP2K4 (Homo sapiens, UniProt P45985)
T3 sequence (P45985 1-399): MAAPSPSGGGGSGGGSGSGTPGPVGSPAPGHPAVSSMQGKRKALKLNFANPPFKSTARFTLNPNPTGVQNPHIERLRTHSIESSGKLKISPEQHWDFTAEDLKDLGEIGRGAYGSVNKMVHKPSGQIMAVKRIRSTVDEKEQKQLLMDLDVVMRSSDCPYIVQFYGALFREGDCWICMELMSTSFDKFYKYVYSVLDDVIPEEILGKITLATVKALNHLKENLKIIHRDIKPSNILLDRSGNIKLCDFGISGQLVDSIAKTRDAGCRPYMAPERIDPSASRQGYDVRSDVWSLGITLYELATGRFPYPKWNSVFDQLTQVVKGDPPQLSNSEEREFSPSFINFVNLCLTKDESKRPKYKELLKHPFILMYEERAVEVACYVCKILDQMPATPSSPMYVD

MAP2K6 = target: T4, MAP2K6 (Homo sapiens, UniProt P52564)
T4 sequence (P52564 1-334): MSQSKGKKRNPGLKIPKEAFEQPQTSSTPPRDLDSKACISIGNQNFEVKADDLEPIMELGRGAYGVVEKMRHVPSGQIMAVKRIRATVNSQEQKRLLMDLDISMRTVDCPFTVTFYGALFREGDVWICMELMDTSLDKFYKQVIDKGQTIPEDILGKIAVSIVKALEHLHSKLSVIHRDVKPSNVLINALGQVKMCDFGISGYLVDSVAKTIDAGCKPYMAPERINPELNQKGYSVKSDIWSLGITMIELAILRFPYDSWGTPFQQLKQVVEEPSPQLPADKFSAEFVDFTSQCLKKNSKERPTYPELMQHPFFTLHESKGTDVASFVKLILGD

MARK3 = MARK3 (Homo sapiens, UniProt P27448)
PIM3 = PIM3 (Homo sapiens, UniProt Q86V86)
HIPK2 = HIPK2 (Homo sapiens, UniProt Q9H2X6)
MAP2K7 = target: T5, MAP2K7 (Homo sapiens, UniProt O14733)
T5 sequence (O14733 1-419): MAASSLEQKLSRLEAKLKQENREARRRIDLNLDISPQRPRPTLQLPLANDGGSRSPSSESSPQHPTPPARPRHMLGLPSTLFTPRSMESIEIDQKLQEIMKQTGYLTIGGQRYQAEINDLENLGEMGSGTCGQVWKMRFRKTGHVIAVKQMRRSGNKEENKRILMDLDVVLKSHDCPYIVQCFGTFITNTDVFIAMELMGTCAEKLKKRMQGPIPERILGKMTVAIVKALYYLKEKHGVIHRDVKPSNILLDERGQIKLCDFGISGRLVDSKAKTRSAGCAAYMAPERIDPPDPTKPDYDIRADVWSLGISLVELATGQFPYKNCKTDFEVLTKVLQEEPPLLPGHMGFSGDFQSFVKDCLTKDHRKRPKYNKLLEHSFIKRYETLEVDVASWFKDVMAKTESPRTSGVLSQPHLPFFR

Chain of CK1d (P48730 whole entry): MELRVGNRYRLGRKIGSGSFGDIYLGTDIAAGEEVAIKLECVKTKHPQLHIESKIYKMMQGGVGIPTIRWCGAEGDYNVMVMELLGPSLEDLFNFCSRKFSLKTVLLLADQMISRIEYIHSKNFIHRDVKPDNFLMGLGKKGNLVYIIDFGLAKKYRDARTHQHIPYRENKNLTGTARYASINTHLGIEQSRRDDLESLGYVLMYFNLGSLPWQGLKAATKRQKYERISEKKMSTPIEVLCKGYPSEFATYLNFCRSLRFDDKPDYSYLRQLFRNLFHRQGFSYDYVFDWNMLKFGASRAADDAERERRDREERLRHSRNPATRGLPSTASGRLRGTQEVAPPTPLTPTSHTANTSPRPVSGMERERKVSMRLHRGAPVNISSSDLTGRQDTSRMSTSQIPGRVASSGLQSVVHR
Chain of JNK3 (P53779 whole entry): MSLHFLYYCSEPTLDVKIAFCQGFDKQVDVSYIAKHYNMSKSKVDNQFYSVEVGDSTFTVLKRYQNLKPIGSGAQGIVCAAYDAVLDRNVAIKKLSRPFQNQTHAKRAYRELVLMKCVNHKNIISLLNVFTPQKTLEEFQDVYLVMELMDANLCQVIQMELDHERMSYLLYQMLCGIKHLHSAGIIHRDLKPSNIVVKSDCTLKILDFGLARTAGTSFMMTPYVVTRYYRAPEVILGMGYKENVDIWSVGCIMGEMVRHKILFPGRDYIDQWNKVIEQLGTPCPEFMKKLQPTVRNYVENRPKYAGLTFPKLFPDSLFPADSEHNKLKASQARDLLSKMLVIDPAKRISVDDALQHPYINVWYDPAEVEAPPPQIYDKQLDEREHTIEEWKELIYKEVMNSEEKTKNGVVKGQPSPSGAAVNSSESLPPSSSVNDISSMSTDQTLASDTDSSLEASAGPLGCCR
Chain of HIPK2 (Q9H2X6 whole entry): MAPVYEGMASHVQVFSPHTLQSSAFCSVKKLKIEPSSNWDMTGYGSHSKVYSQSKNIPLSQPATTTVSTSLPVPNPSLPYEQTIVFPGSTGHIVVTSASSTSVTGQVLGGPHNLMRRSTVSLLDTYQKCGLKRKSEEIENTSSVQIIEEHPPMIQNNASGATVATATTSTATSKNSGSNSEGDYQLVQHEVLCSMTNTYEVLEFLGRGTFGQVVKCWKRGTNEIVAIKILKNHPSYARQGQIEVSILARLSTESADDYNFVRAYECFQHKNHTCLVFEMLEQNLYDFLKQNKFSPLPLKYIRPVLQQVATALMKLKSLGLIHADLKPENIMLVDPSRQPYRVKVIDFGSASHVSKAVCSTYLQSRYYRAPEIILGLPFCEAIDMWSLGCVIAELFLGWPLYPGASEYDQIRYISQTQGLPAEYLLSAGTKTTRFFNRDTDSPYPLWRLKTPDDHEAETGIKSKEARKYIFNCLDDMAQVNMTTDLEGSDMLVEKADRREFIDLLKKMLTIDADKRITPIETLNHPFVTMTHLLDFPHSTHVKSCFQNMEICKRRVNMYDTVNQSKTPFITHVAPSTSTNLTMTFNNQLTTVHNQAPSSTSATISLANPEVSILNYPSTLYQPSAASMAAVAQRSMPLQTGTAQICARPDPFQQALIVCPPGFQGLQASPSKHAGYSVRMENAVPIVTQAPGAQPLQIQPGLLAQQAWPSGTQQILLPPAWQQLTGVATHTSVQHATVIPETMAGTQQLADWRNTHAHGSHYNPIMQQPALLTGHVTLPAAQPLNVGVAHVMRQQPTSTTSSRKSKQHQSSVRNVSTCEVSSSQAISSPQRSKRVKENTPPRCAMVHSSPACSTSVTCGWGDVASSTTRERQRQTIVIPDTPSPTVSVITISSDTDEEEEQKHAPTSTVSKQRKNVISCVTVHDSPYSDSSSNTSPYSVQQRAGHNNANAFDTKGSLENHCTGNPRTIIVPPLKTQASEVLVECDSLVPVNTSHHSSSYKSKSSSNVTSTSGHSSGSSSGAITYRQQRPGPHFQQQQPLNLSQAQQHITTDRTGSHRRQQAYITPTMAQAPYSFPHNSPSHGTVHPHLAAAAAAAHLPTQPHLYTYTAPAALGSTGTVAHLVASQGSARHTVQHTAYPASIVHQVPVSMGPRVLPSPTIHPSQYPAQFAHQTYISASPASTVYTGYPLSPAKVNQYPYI
Chain of MARK3 (P27448 whole entry): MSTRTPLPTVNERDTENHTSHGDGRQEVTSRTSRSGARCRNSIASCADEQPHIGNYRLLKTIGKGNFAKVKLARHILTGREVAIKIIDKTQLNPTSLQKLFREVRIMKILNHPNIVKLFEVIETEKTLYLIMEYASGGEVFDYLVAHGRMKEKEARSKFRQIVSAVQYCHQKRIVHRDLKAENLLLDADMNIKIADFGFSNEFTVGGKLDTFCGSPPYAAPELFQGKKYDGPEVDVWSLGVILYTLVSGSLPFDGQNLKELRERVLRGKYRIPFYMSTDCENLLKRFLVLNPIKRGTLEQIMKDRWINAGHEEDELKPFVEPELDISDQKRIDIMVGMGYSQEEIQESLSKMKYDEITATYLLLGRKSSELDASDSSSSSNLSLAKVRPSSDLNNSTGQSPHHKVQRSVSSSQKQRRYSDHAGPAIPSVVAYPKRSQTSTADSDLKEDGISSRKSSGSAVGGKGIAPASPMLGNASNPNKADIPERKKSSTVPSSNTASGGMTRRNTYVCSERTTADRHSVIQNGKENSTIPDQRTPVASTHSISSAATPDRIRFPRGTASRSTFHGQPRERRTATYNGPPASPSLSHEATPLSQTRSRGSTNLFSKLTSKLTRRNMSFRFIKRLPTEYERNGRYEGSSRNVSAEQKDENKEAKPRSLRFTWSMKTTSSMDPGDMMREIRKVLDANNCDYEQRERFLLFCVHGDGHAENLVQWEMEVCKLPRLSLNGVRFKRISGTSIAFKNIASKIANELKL
Chain of BIKE (Q9NSY1 whole entry): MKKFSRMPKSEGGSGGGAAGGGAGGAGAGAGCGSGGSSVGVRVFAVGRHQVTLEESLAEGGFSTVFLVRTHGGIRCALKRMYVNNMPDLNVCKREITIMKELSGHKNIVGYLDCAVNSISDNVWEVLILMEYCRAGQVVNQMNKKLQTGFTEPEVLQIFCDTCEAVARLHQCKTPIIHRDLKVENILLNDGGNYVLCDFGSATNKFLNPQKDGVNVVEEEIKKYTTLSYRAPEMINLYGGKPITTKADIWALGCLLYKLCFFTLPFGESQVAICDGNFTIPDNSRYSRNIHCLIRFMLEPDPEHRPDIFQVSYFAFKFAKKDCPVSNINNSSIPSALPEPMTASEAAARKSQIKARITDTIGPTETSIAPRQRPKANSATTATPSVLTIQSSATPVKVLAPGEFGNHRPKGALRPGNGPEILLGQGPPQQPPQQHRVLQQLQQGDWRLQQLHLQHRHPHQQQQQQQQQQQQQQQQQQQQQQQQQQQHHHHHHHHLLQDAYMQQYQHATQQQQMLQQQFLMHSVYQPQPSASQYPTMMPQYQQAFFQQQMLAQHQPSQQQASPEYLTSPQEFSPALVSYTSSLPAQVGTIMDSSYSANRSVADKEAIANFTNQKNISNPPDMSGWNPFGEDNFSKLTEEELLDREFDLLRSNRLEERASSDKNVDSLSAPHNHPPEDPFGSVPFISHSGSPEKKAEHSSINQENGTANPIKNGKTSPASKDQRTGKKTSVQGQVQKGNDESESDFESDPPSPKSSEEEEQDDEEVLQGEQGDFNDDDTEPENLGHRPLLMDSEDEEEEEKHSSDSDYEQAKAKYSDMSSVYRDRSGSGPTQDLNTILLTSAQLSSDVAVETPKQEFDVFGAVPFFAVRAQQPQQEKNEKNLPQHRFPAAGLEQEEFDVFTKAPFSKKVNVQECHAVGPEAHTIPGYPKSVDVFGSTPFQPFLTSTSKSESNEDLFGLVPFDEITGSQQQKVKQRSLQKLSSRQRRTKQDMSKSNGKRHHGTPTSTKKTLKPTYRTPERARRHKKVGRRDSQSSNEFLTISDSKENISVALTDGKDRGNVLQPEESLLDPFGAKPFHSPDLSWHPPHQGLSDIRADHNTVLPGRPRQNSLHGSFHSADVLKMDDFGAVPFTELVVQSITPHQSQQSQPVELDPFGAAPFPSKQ

For `CNc1ncc2cc(-c3ccc(-c4cccc(C)n4)cc3Cl)c(=O)n(CC3OCC(N)CO3)c2n1` (stereo not shown) [compound 2, G-5555], the “dTm G-5555 (2)” value (BIKE; 10 µM, binder) was 2.5 °C, the “dTm G-5555 (2)” value (CK1d; 10 µM, binder) was 0.4 °C and the “dTm G-5555 (2)” value (DRAK1; 10 µM, binder) was -0.7 °C. The “dTm G-5555 (2)” value (Erk7; 10 µM, binder) was 0.3 °C, the “dTm G-5555 (2)” value (JNK3; 10 µM, binder) was 1.8 °C and the “dTm G-5555 (2)” value (MAP2K4; 10 µM, binder) was 6.4 °C. For the same compound, the “dTm G-5555 (2)” value (MAP2K6; 10 µM, binder) was 4.4 °C, the “dTm G-5555 (2)” value (MARK3; 10 µM, binder) was 8.8 °C and the “dTm G-5555 (2)” value (PIM3; 10 µM, binder) was -1.8 °C.

`CNc1ncc2cc(-c3cc(Br)ccc3Cl)c(=O)n(CCCCN)c2n1` [compound 6, 8-(4-Aminobutyl)-6-(5-bromo-2-chlorophenyl)-2-(methylamino)pyrido[2,3-d]pyrimidin-7(8H)-one] showed a ΔTm at 10 µM (BIKE; read-out: dTm 6) of 0.6 °C, a ΔTm at 10 µM (CK1d; read-out: dTm 6) of 0.9 °C and a ΔTm at 10 µM (DRAK1; read-out: dTm 6) of -0.1 °C. It also gave a ΔTm at 10 µM (Erk7; read-out: dTm 6) of 0.3 °C, a ΔTm at 10 µM (HIPK2; read-out: dTm 6) of 0.2 °C and a ΔTm at 10 µM (JNK3; read-out: dTm 6) of 1.1 °C. The ΔTm at 10 µM (MAP2K4; read-out: dTm 6) was 2.5 °C, the ΔTm at 10 µM (MAP2K6; read-out: dTm 6) was 1.4 °C and the ΔTm at 10 µM (MAP2K7; read-out: dTm 6) was 0.9 °C. The ΔTm at 10 µM (MARK3; read-out: dTm 6) was 3.5 °C and the ΔTm at 10 µM (PIM3; read-out: dTm 6) was -0.4 °C.

`CNc1ncc2cc(-c3cc(F)ccc3F)c(=O)n(CCCCN)c2n1` [compound 5, 8-(4-Aminobutyl)-6-(2,5-difluorophenyl)-2-(methylamino)pyrido[2,3-d]pyrimidin-7(8H)-one] showed a ΔTm at 10 µM (BIKE; read-out: dTm MR22 (5)) of 2.1 °C, a ΔTm at 10 µM (CK1d; read-out: dTm MR22 (5)) of 1.3 °C and a ΔTm at 10 µM (DRAK1; read-out: dTm MR22 (5)) of -0.7 °C. It also gave a ΔTm at 10 µM (Erk7; read-out: dTm MR22 (5)) of -1.5 °C, a ΔTm at 10 µM (HIPK2; read-out: dTm MR22 (5)) of 0.1 °C and a ΔTm at 10 µM (MAP2K4; read-out: dTm MR22 (5)) of 1.5 °C. For the same compound, the ΔTm at 10 µM (MAP2K6; read-out: dTm MR22 (5)) was 1 °C, the ΔTm at 10 µM (MAP2K7; read-out: dTm MR22 (5)) was -0.9 °C and the ΔTm at 10 µM (MARK3; read-out: dTm MR22 (5)) was 1.1 °C. For the same compound, the ΔTm at 10 µM (PIM3; read-out: dTm MR22 (5)) was -0.6 °C.

With `CNc1ncc2cc(-c3ccccc3Cl)c(=O)n(CCCCN)c2n1` [compound 4, 8-(4-Aminobutyl)-6-(2-chlorophenyl)-2-(methylamino)pyrido[2,3-d]pyrimidin-7(8H)-one] the ΔTm at 10 µM (BIKE; read-out: dTm MR21 (4)) was 3.1 °C, the ΔTm at 10 µM (CK1d; read-out: dTm MR21 (4)) was 2.9 °C and the ΔTm at 10 µM (DRAK1; read-out: dTm MR21 (4)) was 0.1 °C. The ΔTm at 10 µM (Erk7; read-out: dTm MR21 (4)) was 0.8 °C, the ΔTm at 10 µM (HIPK2; read-out: dTm MR21 (4)) was 0.1 °C and the ΔTm at 10 µM (JNK3; read-out: dTm MR21 (4)) was 2.7 °C. For the same compound, the ΔTm at 10 µM (MAP2K4; read-out: dTm MR21 (4)) was 3.3 °C, the ΔTm at 10 µM (MAP2K6; read-out: dTm MR21 (4)) was 3.1 °C and the ΔTm at 10 µM (MAP2K7; read-out: dTm MR21 (4)) was 1.1 °C. The ΔTm at 10 µM (MARK3; read-out: dTm MR21 (4)) was 5.3 °C and the ΔTm at 10 µM (PIM3; read-out: dTm MR21 (4)) was -0.8 °C.

`CNc1ncc2cc(-c3cc(Br)ccc3Cl)c(=O)n(C[C@H]3OC[C@H](N)CO3)c2n1` [compound 7, 8-(((2r,5r)-5-Amino-1,3-dioxan-2-yl)methyl)-6-(5-bromo-2-chlorophenyl)-2-(methylamino)pyrido[2,3-d]pyrimidin-7(8H)-one] gave a ΔTm at 10 µM (BIKE; read-out: dTm 7) of 0.7 °C, a ΔTm at 10 µM (CK1d; read-out: dTm 7) of -0.1 °C and a ΔTm at 10 µM (DRAK1; read-out: dTm 7) of 0.6 °C. For the same compound, the ΔTm at 10 µM (Erk7; read-out: dTm 7) was 0.1 °C, the ΔTm at 10 µM (HIPK2; read-out: dTm 7) was 0.5 °C and the ΔTm at 10 µM (JNK3; read-out: dTm 7) was 0.5 °C. For the same compound, the ΔTm at 10 µM (MAP2K4; read-out: dTm 7) was 2.1 °C, the ΔTm at 10 µM (MAP2K6; read-out: dTm 7) was 0.9 °C and the ΔTm at 10 µM (MAP2K7; read-out: dTm 7) was 0.1 °C. The ΔTm at 10 µM (MARK3; read-out: dTm 7) was 1.7 °C and the ΔTm at 10 µM (PIM3; read-out: dTm 7) was 0.9 °C.

Source: article doi:10.1101/2023.03.24.534094v2 (biorxiv, 2023)
